US20250161241A1, “CYSTEAMIDES, THERAPEUTIC COMPOSITIONS THEREOF, AND RELATED METHODS” (Boyce Thompson Institute for Plant Research, Inc., priority 2022, published 2025)

Tests used:
brain-resident Tregs = assay: brain-resident Treg levels in mice after oral gavage (flow cytometry, i.v. CD45 labeling); format: in vivo, mouse; details: SPF mice, oral gavage 50 mg/kg/day, 14 days, vs vehicle; brain tissue; FIG. 66 top row
Method: (§1) Butyrate-MCY (dissolved in water) was delivered by oral gavage at a rate of 50 mg/kg body weight per day in a volume of 100 μL for two weeks.
For isolation of brain leukocyte populations, mice were euthanized with CO2 and perfused through the left ventricle with 20 mL PBS. The whole brain was removed and placed in 2.5 mL digestion buffer (PBS, 5% FCS, 1 mM HEPES) before being finely chopped. Collagenase D (Roche, 400 U) was added to the mixture, which was then incubated at 37° C. for 30 min before adding 50 μL 0.5 M EDTA, followed by a 5-min incubation. […]
(§2) All antibodies above were used at 1:200 dilutions, except FoxP3 were used at 1:100 dilutions. Stained cells were analyzed on a 5 laser, 18 color custom-configuration BD LSRFortessa (BD). Data were collected using BD FACSDiva version 9.0 and analyzed using FlowJo (version 10.7.1, Tree Star).
For functional evaluation, the previously unreported MCY conjugates of butyrate were prioritized, given that their microbiota-dependent production is conserved in humans and considering that the corresponding parent metabolite, butyrate, serves important roles in immune homeostasis. […] SPF mice were supplemented via oral gavage with butyrate-MCY (50 mg/kg/day, 100 μL/day, 14 days), which was identified in the brain and serum metabolomes and the levels of brain-resident Tregs was measured. […]

gut Tregs (colon tissue) = assay: colon (gut) Treg levels in mice after oral gavage (flow cytometry); format: in vivo, mouse; details: SPF mice, oral gavage 50 mg/kg/day, 14 days, vs vehicle, FIG. 66 bottom row
Method: as §1
Mouse colons were removed, cleaned of attached fat tissues, and washed in ice-cold PBS (Sigma-Aldrich). They were then opened longitudinally and washed again in ice-cold PBS. Dissociation of epithelial cells was performed by shaking at 37° C. in HBSS (Sigma-Aldrich) containing 10 mM HEPES, 10 mM EDTA (Thermo Fisher Scientific) and 2 mM dithiothreitol (DTT) two times for 15 min each. After each step, samples were vortexed, and the supernatant containing the epithelial fraction was removed. […]
as §2
For functional evaluation, the previously unreported MCY conjugates of butyrate were prioritized, given that their microbiota-dependent production is conserved in humans and considering that the corresponding parent metabolite, butyrate, serves important roles in immune homeostasis. […] FIG. 66 (top row) provides representative flow cytometry plots of Tregs and quantification of Tregs as percentage of all CD4+ T cells in brain tissue from vehicle or butyrate-MCY treated mice. […]

For CCCC(=O)NCCSC [butyrate-MCY], the “percentage of brain-resident Tregs amongst CD4+ T cells” value (brain-resident Tregs) was “significantly decreased” and the “percentage of gut Tregs amongst CD4+ T cells” value (gut Tregs (colon tissue)) was “significantly decreased”.
